Results: US7745574B2, “Compounds that regulate apoptosis” (The Burnham Institute, priority 2005, dated 2010)
[ ]: non-standard residue; d: D form. Ahx = NCCCCCC(=O)O

System: H460 lung cancer cells
Experiment: Apoptosis in H460 lung cancer cells
Type: cell-based
Conditions: alanine scan, H460 lung cancer cells

Substance | apoptotic effect of alanine-substituted Nur77-9
acetyl-FSRSLHSALGXrrrrrrrr-amide (Ac-FSRSLHSALG[Ahx][dR][dR][dR][dR][dR][dR][dR][dR]-NH2; SMILES CC(=O)N[C@@H](Cc1ccccc1)C(=O)N[C@@H](CO)C(=O)N[C@@H](CCCNC(=N)N)C(=O)N[C@@H](CO)C(=O)N[C@@H](CC(C)C)C(=O)N[C@@H](Cc1c[nH]cn1)C(=O)N[C@@H](CO)C(=O)N[C@@H](C)C(=O)N[C@@H](CC(C)C)C(=O)NCC(=O)NCCCCCC(=O)N[C@H](CCCNC(=N)N)C(=O)N[C@H](CCCNC(=N)N)C(=O)N[C@H](CCCNC(=N)N)C(=O)N[C@H](CCCNC(=N)N)C(=O)N[C@H](CCCNC(=N)N)C(=O)N[C@H](CCCNC(=N)N)C(=O)N[C@H](CCCNC(=N)N)C(=O)N[C@H](CCCNC(=N)N)C(N)=O) [SEQ ID NO: 63] | largely impaired
acetyl-FSRSAHSLLGXrrrrrrrr-amide (Ac-FSRSAHSLLG[Ahx][dR][dR][dR][dR][dR][dR][dR][dR]-NH2; SMILES CC(=O)N[C@@H](Cc1ccccc1)C(=O)N[C@@H](CO)C(=O)N[C@@H](CCCNC(=N)N)C(=O)N[C@@H](CO)C(=O)N[C@@H](C)C(=O)N[C@@H](Cc1c[nH]cn1)C(=O)N[C@@H](CO)C(=O)N[C@@H](CC(C)C)C(=O)N[C@@H](CC(C)C)C(=O)NCC(=O)NCCCCCC(=O)N[C@H](CCCNC(=N)N)C(=O)N[C@H](CCCNC(=N)N)C(=O)N[C@H](CCCNC(=N)N)C(=O)N[C@H](CCCNC(=N)N)C(=O)N[C@H](CCCNC(=N)N)C(=O)N[C@H](CCCNC(=N)N)C(=O)N[C@H](CCCNC(=N)N)C(=O)N[C@H](CCCNC(=N)N)C(N)=O) [SEQ ID NO: 62] | largely impaired
acetyl-ASRSLHSLLGXmmrrr-amide [SEQ ID NO: 61] | largely impaired
acetyl-FSRSLHSLAGXrrrrrrrr-amide (Ac-FSRSLHSLAG[Ahx][dR][dR][dR][dR][dR][dR][dR][dR]-NH2; SMILES CC(=O)N[C@@H](Cc1ccccc1)C(=O)N[C@@H](CO)C(=O)N[C@@H](CCCNC(=N)N)C(=O)N[C@@H](CO)C(=O)N[C@@H](CC(C)C)C(=O)N[C@@H](Cc1c[nH]cn1)C(=O)N[C@@H](CO)C(=O)N[C@@H](CC(C)C)C(=O)N[C@@H](C)C(=O)NCC(=O)NCCCCCC(=O)N[C@H](CCCNC(=N)N)C(=O)N[C@H](CCCNC(=N)N)C(=O)N[C@H](CCCNC(=N)N)C(=O)N[C@H](CCCNC(=N)N)C(=O)N[C@H](CCCNC(=N)N)C(=O)N[C@H](CCCNC(=N)N)C(=O)N[C@H](CCCNC(=N)N)C(=O)N[C@H](CCCNC(=N)N)C(N)=O) [SEQ ID NO: 64] | largely impaired

Biological target: T1, Bcl-2 (Homo sapiens, UniProt P10415)
Experiment: Co-immunoprecipitation with Bcl-2 in HEK293T cells
Type: binding
Parameters: expressed in transfected cells; host or cells: HEK293T
Conditions: peptide added
Description: Nur77 peptide binds anti-apoptotic Bcl-2 family members. Nur77-peptide binds Bcl-B, Bfl-1, and Bcl-2, but not Mcl-1 and Bcl-xL. […] The expression vector for the GFP-Nur77/489-497 fusion was transfected into HEK293T cells together with or without the indicated expression vector for myc-tagged Bcl-2 family member. Cell lysates were prepared and analyzed for interaction of Nur77/489-497 with Bcl-2 family members by co-immunoprecipitation assay using anti-Myc antibody. Immunoprecipitates were then separated on SDS/PAGE and immunoblotted using anti-GFP antibody. […] Nur77/Bcl-2 interaction assays—Reporter gene assays using NurRE-tk-CAT in CV-1 cells, and GST pull-down assay were described previously (Li, et al. 2000 Science 289:1159-1164). For the mammalian two-hybrid assays, CV-1 cells were co-transfected with pcDNA-Gal4TAD-Nur77 or pcDNA-Gal4TAD-Nur77/ΔDBD and pcDNA-Gal4 DBD-Bcl-2/ΔTM along with a luciferase reporter gene driven by four copies of the Gal-4-binding site. The cells were harvested and reporter gene activity was measured. For Co-IP assays, HEK293T cells were transiently transfected with various expression plasmids using a modified calcium phosphate precipitation method (Wu et al, 1997) in the presence of caspase inhibitors (zVAD-fmk) to prevent degradation of Nur77 protein due to apoptosis. Cells were suspended in lysis buffer (50 mM Tris-HCl, PH7.4; 150 mM NaCl; 20 mM EDTA; 1% NP-40; 1 mM PMSF; 50 μg/ml Leupeptin; […]; 0.1 mM Na3VO4; and 1 mM DTT). Cells extracts were cleared by incubation with the Protein A/G plus Agarose beads (Santa Cruz) and then incubated with appropriate antibody and 30 μl of Protein A or G plus Agarose beads overnight at 4° C. […] Immunoreactive products were detected by chemiluminescence with an enhanced chemiluminescence system (ECL) (Amersham).

T1 sequence (P10415 whole entry): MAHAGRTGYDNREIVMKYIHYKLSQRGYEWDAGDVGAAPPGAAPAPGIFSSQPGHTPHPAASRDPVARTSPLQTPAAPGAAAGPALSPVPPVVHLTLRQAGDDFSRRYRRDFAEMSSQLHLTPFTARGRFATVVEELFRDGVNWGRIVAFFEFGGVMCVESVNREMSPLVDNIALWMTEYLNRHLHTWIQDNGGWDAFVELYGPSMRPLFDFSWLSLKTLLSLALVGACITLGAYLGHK

inhibition of co-precipitation of GFP-Nur77/489-497 with Bcl-2 | Substance
not | Smac-peptide-r8: Smac peptide conjugated with r8, apoptosis-inducing comparison peptide (Ac-AVPIAQKC[Ahx][dR][dR][dR][dR][dR][dR][dR][dR]-NH2; also: Cys thiol joined to chloroacetyl-Ahx by thioether) [reference compound]

Biological target: T1, Bcl-2
Experiment: Bcl-2 conformational change, anti-Bcl-2/BH3 antibody staining of HEK293T cells transfected with Bcl-2
Type: cell-based
Parameters: expressed in transfected cells; host or cells: HEK293T
Conditions: flow cytometry
Description: Such a Bcl-2 conformation is recognized by an anti-Bcl-2 antibody raised against the Bcl-2 BH3 domain. To determine whether NuBCP-9 induced a Bcl-2 conformational change, flow cytometric assays were conducted which HEK293T cells transfected with Bcl-2 were exposed to NuBCPs and subsequently stained with the anti-Bcl-2/BH3 antibody.

Substance | Bcl-2 immunofluorescence by anti-Bcl-2/BH3 antibody
Smac-peptide-r8: Smac peptide conjugated with r8, apoptosis-inducing comparison peptide (Ac-AVPIAQKC[Ahx][dR][dR][dR][dR][dR][dR][dR][dR]-NH2; also: Cys thiol joined to chloroacetyl-Ahx by thioether) [reference compound] | did not show any Bcl-2 immunofluorescence

System: not listed separately
Experiment: Induction of apoptosis by Nur77 peptides, cell line not stated
Type: cell-based
Conditions: not given
Description: Apoptosis assays—For nuclear morphological change analysis, cells were trypsinized, washed with PBS, fixed with 3.7% paraformaldehyde, and stained with DAPI (4,6-diamidino-2-phenylindole) (50 μg/ml) to visualize the nuclei by UV-microscopy. The percentages of apoptotic cells were determined by counting 300 GFP-positive cells, scoring cells having nuclear fragmentation and/or chromatin condensation.

Substance | induction of apoptosis
acetyl------------FGDWIDSILGXrrrrrrrr-amide (Ac-FGDWIDSILG[Ahx][dR][dR][dR][dR][dR][dR][dR][dR]-NH2; SMILES CC[C@H](C)[C@H](NC(=O)[C@H](CO)NC(=O)[C@H](CC(=O)O)NC(=O)[C@@H](NC(=O)[C@H](Cc1c[nH]c2ccccc12)NC(=O)[C@H](CC(=O)O)NC(=O)CNC(=O)[C@H](Cc1ccccc1)NC(C)=O)[C@@H](C)CC)C(=O)N[C@@H](CC(C)C)C(=O)NCC(=O)NCCCCCC(=O)N[C@H](CCCNC(=N)N)C(=O)N[C@H](CCCNC(=N)N)C(=O)N[C@H](CCCNC(=N)N)C(=O)N[C@H](CCCNC(=N)N)C(=O)N[C@H](CCCNC(=N)N)C(=O)N[C@H](CCCNC(=N)N)C(=O)N[C@H](CCCNC(=N)N)C(=O)N[C@H](CCCNC(=N)N)C(N)=O) [SEQ ID NO: 16] | apoptotic
acetyl---F——L_LLGXrrrrrrrr-amide (Ac-FLLLG[Ahx][dR][dR][dR][dR][dR][dR][dR][dR]-NH2; SMILES CC(=O)N[C@@H](Cc1ccccc1)C(=O)N[C@@H](CC(C)C)C(=O)N[C@@H](CC(C)C)C(=O)N[C@@H](CC(C)C)C(=O)NCC(=O)NCCCCCC(=O)N[C@H](CCCNC(=N)N)C(=O)N[C@H](CCCNC(=N)N)C(=O)N[C@H](CCCNC(=N)N)C(=O)N[C@H](CCCNC(=N)N)C(=O)N[C@H](CCCNC(=N)N)C(=O)N[C@H](CCCNC(=N)N)C(=O)N[C@H](CCCNC(=N)N)C(=O)N[C@H](CCCNC(=N)N)C(N)=O) [SEQ ID NO: 40] | apoptotic
acetyl------------FAALSALVLGXrrrrrrrr-amide (Ac-FAALSALVLG[Ahx][dR][dR][dR][dR][dR][dR][dR][dR]-NH2; SMILES CC(=O)N[C@@H](Cc1ccccc1)C(=O)N[C@@H](C)C(=O)N[C@@H](C)C(=O)N[C@@H](CC(C)C)C(=O)N[C@@H](CO)C(=O)N[C@@H](C)C(=O)N[C@@H](CC(C)C)C(=O)N[C@H](C(=O)N[C@@H](CC(C)C)C(=O)NCC(=O)NCCCCCC(=O)N[C@H](CCCNC(=N)N)C(=O)N[C@H](CCCNC(=N)N)C(=O)N[C@H](CCCNC(=N)N)C(=O)N[C@H](CCCNC(=N)N)C(=O)N[C@H](CCCNC(=N)N)C(=O)N[C@H](CCCNC(=N)N)C(=O)N[C@H](CCCNC(=N)N)C(=O)N[C@H](CCCNC(=N)N)C(N)=O)C(C)C) [SEQ ID NO: 17] | apoptotic
acetyl------------llshlsrsfGXrrrrrrrr-amide (Ac-[dL][dL][dS][dH][dL][dS][dR][dS][dF]G[Ahx][dR][dR][dR][dR][dR][dR][dR][dR]-NH2; SMILES CC(=O)N[C@H](CC(C)C)C(=O)N[C@H](CC(C)C)C(=O)N[C@H](CO)C(=O)N[C@H](Cc1c[nH]cn1)C(=O)N[C@H](CC(C)C)C(=O)N[C@H](CO)C(=O)N[C@H](CCCNC(=N)N)C(=O)N[C@H](CO)C(=O)N[C@H](Cc1ccccc1)C(=O)NCC(=O)NCCCCCC(=O)N[C@H](CCCNC(=N)N)C(=O)N[C@H](CCCNC(=N)N)C(=O)N[C@H](CCCNC(=N)N)C(=O)N[C@H](CCCNC(=N)N)C(=O)N[C@H](CCCNC(=N)N)C(=O)N[C@H](CCCNC(=N)N)C(=O)N[C@H](CCCNC(=N)N)C(=O)N[C@H](CCCNC(=N)N)C(N)=O) [Nur77/1(retro-inverso)] | apoptotic
acetyl------------LLSHLSRSFGXrrrrrrrr-amide (Ac-LLSHLSRSFG[Ahx][dR][dR][dR][dR][dR][dR][dR][dR]-NH2; not fully specified; printed as acetyl------------LLSHLSRSFGXrrrrrrrr-amide) [Nur77/1 (inverso)] | apoptotic
acetyl------------FYLKLEDLVGXrrrrrrrr-amide (Ac-FYLKLEDLVG[Ahx][dR][dR][dR][dR][dR][dR][dR][dR]-NH2; SMILES CC(=O)N[C@@H](Cc1ccccc1)C(=O)N[C@@H](Cc1ccc(O)cc1)C(=O)N[C@@H](CC(C)C)C(=O)N[C@@H](CCCCN)C(=O)N[C@@H](CC(C)C)C(=O)N[C@@H](CCC(=O)O)C(=O)N[C@@H](CC(=O)O)C(=O)N[C@@H](CC(C)C)C(=O)N[C@H](C(=O)NCC(=O)NCCCCCC(=O)N[C@H](CCCNC(=N)N)C(=O)N[C@H](CCCNC(=N)N)C(=O)N[C@H](CCCNC(=N)N)C(=O)N[C@H](CCCNC(=N)N)C(=O)N[C@H](CCCNC(=N)N)C(=O)N[C@H](CCCNC(=N)N)C(=O)N[C@H](CCCNC(=N)N)C(=O)N[C@H](CCCNC(=N)N)C(N)=O)C(C)C) [SEQ ID NO: 18] | apoptotic
